# Reference: patent publication US11851681B2, “Cell preparation method” (KYOTO PREFECTURAL PUBLIC UNIVERSITY CORPORATION, priority 2015, dated 2023)
# Key:
# Type in all cases: cell-based
# [1] = system: human dermal fibroblasts; HDFs; experiment: Alizarin Red S staining and absorbance, compound panel, Examples 29-30; details: calcification induction medium; compounds 2 μM (Pifthrin-α 5 μM, DZnep 50 nM); day 28; FIG. 33, 34
# Experimental: The compounds added to the medium and the concentrations thereof are as follows. • I-BET151: 2 μM • Pifthrin-α: 5 μM • PD0325901: 2 μM • 2-Me-5HT: 2 μM • CX4945: 2 μM • CHIR99021: 2 μM • Forskolin: 2 μM • DZnep: 50 nM • D4476: 2 μM • SB431542: 2 μM • ALK5 i II: 2 μM.
# In the experiment of Example 29, the solution after staining with the Alizarin Red S staining solution was collected in a 96 well plate and the absorbance (OD 550 nm) was measured with an absorption spectrometer.
# [2] = system: human dermal fibroblasts; HDFs; experiment: Real-time RT-PCR of Osteocalcin and Alkaline Phosphatase, Example 3; details: each compound 2 μM in calcification induction medium; day 24; FIG. 3
# Experimental: (§1) The concentrations of the compounds are as follows: • D4476: 2 μM • SB431542: 2 μM • ALK5 inhibitor II: 2 μM.
# [3] = system: human dermal fibroblasts; HDFs; experiment: Oil Red O staining, fibroblast to brown adipocyte, Example 12; details: compound 2 μM in addition to T3 1 nM and Rosiglitazone 1 μM, adipocyte induction medium; day 14; FIG. 12
# Experimental: (§2) The concentrations of the additives are as follows: • T3: 1 nM • Rosiglitazone: 1 μM • D4476: 2 μM • Pifithrin alpha [p53 inhibitor]: 5 μM • SB431542: 2 μM • ALK5 Inhibitor II: 2 μM.
# Then, the cells were washed with sterile distilled water and photographed with a phase contrast microscope at ×100 magnification.
# [4] = system: human dermal fibroblasts; HDFs; experiment: Real-time PCR of AdipoQ, FABP4, PPAR-γ, four inhibitors with Rosiglitazone, Example 50; details: WA medium added with 1 μM Rosiglitazone and 16 μM compound; day 12
# Source text: On day 12, RNA was recovered from the cells and, in the same manner as in Example 47, mRNA of AdipoQ, FABP4 (mature adipocyte marker), and PPAR-γ (preadipocyte marker) was quantified.
# [5] = system: human dermal fibroblasts; HDFs; experiment: Alizarin Red S staining (staining figure), fibroblast to osteoblast, Example 1; details: each compound 2 μM in calcification induction medium; day 24; FIG. 1
# Experimental: It was washed 3 times with sterile distilled water. […] The well after staining was washed with sterile distilled water and photographed.
# The concentrations of the compounds are as follows: • D4476: 2 μM • ALK5 inhibitor II: 2 μM • SB431542: 2 μM.
# [6] = system: human dermal fibroblasts; HDFs; experiment: Real-time RT-PCR of AdipoQ, Example 14; details: D4476, SB431542, ALK5 Inhibitor II 2 μM, PD0325901 1 μM, in addition to T3 and Rosiglitazone; day 14; FIG. 14
# Experimental: The concentrations of the additives are as follows: • T3: 1 nM • Rosiglitazone: 1 μM • D4476: 2 μM. • Pifithrin alpha [p53 inhibitor]: 5 μM • PD0325901: 1 μM • SB431542: 2 μM • ALK5 Inhibitor II: 2 μM.
# [7] = system: human dermal fibroblasts; HDFs; experiment: Bodipy staining quantification in WA medium, four inhibitors, Example 49; details: 16 μM compound and 1 μM Rosiglitazone, day 12, FIG. 53
# [8] = system: Human normal skin-derived fibroblasts (HDFs); experiment: Real-time RT-PCR of UCP1, four inhibitors, Example 39; details: 4 μM, 8 μM, 12 μM or 16 μM in adipocyte induction medium Day 1 to Day 8, then compound-free to day 14; FIG. 43
# Experimental: The addition concentration of the compound was 4 μM, 8 μM, 12 μM or 16 μM. […] Thereafter, in Day 9-Day 14, culturing was performed in a medium free of ALK5 inhibitor II, LY2157299, SB431542, D4476.
# [9] = system: human dermal fibroblasts; HDFs; experiment: BODIPY staining and fluorescence intensity, Example 15; details: compound 2 μM in addition to T3 1 nM and Rosiglitazone 1 μM; day 14; FIG. 15A, 15B
# Experimental: The concentrations of the additives are as follows: • T3: 1 nM • Rosiglitazone: 1 μM • D4476: 2 μM • SB431541: 2 μM • ALK5 inhibitor II: 2 μM.
# The cells were fixed with 4% para-formaldehyde, washed with PBS(−), reacted for 5 min with BODIPY 493/503 (Invitrogen)/PBS solution at room temperature and washed 3 times with PBS. The cells were photographed with a fluorescence microscope at ×200 magnification and the fluorescence intensity was measured.
# [10] = system: Human normal skin-derived fibroblasts (HDFs); experiment: Alizarin Red S and ALP staining, absorbance, TGF-β pathway inhibitor panel, Examples 31-32; details: for efficiency in converting fibroblast to osteoblast (summary statement): description, conditions not given
# Experimental: On day 21, the culture medium was removed from a part of the well, washed with PBS(-), and fixed with a fixative. It was washed 3 times with sterile distilled water. […] In the experiment of Example 31, the solution after staining with the Alizarin Red S staining solution was collected in a 96 well plate and the absorbance (OD 550 nm) was measured with an absorption spectrometer.
# [11] = system: Human normal skin-derived fibroblasts (HDFs); experiment: Immunostaining of UCP1, four inhibitors, Example 40; details: LY2157299 8 μM, SB431542 4 μM, D4476 4 μM, Day 1 to Day 8, day 14, FIG. 44
# Experimental: Human normal skin-derived fibroblasts (HDFs) were suspended in a general medium (DMEM added with 10% FBS). […] The adipocyte induction medium is DMEM added with 1 nM T3, 1 μM Rosiglitazone, 0.5 mM 3-isobutyl-1-methylxanthine (IBMX), 0.5 μM dexamethasone, 1 μg/mL Insulin and 10% FBS. Once every 2 days, the culture medium was exchanged with a fresh one, and culturing was performed from Day 1 to Day 8. Thereafter, from Day 9 to Day 14, the cells were cultured in an adipocyte induction medium free of ALK5 inhibitor II, LY2157299, SB431542, D4476. On day 14, the culture medium was removed by suction from each well, and washed with PBS(−). After fixing with 4% para-formaldehyde, the well was washed with PBS (−), Permanent wave Buffer (0.2% Triton-X addition PBS) was added and the well was incubated for 15 min. After washing 3 times with PBS(−), Blocking One was added, and the mixture was incubated at room temperature for 60 min. Anti-UCP-1 antibody (RD MAB6158) was added and the mixture was reacted for 2 hrs at room temperature, and washed 3 times with Wash buffer. CF488-conjugated anti-mouse Ig antibody (Biotum 20014) was added and the mixture was reacted for 2 hrs at room temperature, and washed 3 times with PBS(−). After nuclear staining with SlowFade Gold antifade reagent with DAPI manufactured by Lifetechnology, the cells were photographed with a fluorescence microscope at ×100 magnification.
# [12] = system: human dermal fibroblasts; HDFs; experiment: Real-time RT-PCR of CIDEA, Example 13; details: compound 2 μM in addition to T3 1 nM and Rosiglitazone 1 μM, adipocyte induction medium; day 14; FIG. 13
# Experimental: as §2
# [13] = system: human dermal fibroblasts; HDFs; experiment: Alizarin Red S staining (absorbance OD 550 nm), Example 2; details: each compound 2 μM in calcification induction medium; day 24; FIG. 2
# Experimental: as §1
# [14] = system: human dermal fibroblasts; HDFs; experiment: Bodipy staining in WA medium, four inhibitors, Example 48; details: day 12, FIG. 52
# [15] = system: Human normal skin-derived fibroblasts (HDFs); experiment: Real-time RT-PCR of ALP, Osteocalcin, Bonesialoprotein, Example 35; details: day 18, FIG. 39
# Experimental: The concentrations of the small molecule compound or cytokine added are as follows. • ALK5 i II: 4 μM • 1α,25-dihydroxy Vitamin D3 (VD3): 5 nM • Human insulin-like growth factor-1 (IGF-1): 100 ng/ml.
compound,measurement,setting,value
Cc1[nH]c2ccc(O)cc2c1CCN [2-Me-5HT],"conversion from fibroblast to osteoblast, Alizarin Red S staining and absorbance",[1],do not induce conversion from fibroblast to osteoblast
Cc1c[nH]c(-c2cnc(NCCNc3ccc(C#N)cn3)nc2-c2ccc(Cl)cc2Cl)n1 [CHIR],"conversion from fibroblast to osteoblast, Alizarin Red S staining and absorbance",[1],do not induce conversion from fibroblast to osteoblast
"NC(=O)c1ccc(-c2nc(-c3ccc4c(c3)OCCO4)c(-c3ccccn3)[nH]2)cc1 [D4476, 4-[4-(2,3-dihydro-1,4-benzodioxin-6-yl)-5-(2-pyridinyl) 1H-imidazol-2-yl]-benzamide]","conversion of human fibroblast to osteoblast, Osteocalcin and Alkaline Phosphatase mRNA",[2],converted to osteoblast expressing osteocalcin and alkaline phosphatase gene
same,"conversion of fibroblast to brown adipocyte, Oil Red O staining",[3],converted fibroblast to brown adipocyte
same,conversion of human fibroblast to white adipocyte (mRNA markers),[4],converted human fibroblast to white adipocyte
same,"conversion of human fibroblast to osteoblast, Alizarin Red S staining (staining figure)",[5],converted to osteoblast having calcified is bone matrix production ability
same,"conversion of fibroblast to brown adipocytes, AdipoQ mRNA",[6],converted fibroblast to brown adipocytes expressing mRNA of AdipoQ gene
same,"fat accumulation (BODIPY) / conversion to white adipocyte, co-addition of Rosiglitazone",[7],more strongly induced fat accumulation than by the addition of Rosiglitazone alone
same,"conversion from fibroblast to osteoblast, Alizarin Red S staining and absorbance",[1],induce conversion from fibroblast to osteoblast
same,"conversion of fibroblast to brown adipocyte, UCP1 mRNA",[8],converted fibroblast to brown adipocyte strongly expressing UCP1 gene
same,"conversion of fibroblast to brown adipocytes, BODIPY staining and fluorescence intensity",[9],converted fibroblast to brown adipocytes having lipid droplets stained with BODIPY
same,efficiency in converting fibroblast to osteoblast (summary statement),[10],highly efficient in converting fibroblast to osteoblast
same,"conversion of fibroblast to brown adipocyte, UCP1 protein",[11]; ALK5 inhibitor II 4 μM,converted fibroblast to brown adipocyte expressing UCP1 protein
same,staining with anti-UCP1 antibody,[11]; groups 3-6: ALK5 inhibitor II 4 μM,many cells were stained with anti-UCP1 antibody
same,"conversion of fibroblast to brown adipocytes, CIDEA mRNA",[12],converted fibroblast to brown adipocytes expressing mRNA of CIDEA gene
same,"conversion of human fibroblast to osteoblast, Alizarin Red S staining (absorbance OD 550 nm)",[13],converted to osteoblast having calcified bone matrix production ability
same,"lipid droplets stained with Bodipy, inhibitor alone",[14]; WA medium added with 16 μM compound alone,only a few cells contained lipid droplets stained with Bodipy
same,"lipid droplets stained with Bodipy / conversion to white adipocyte, inhibitor and Rosiglitazone",[14]; WA medium added with 16 μM compound and 1 μM Rosiglitazone,many cells were stained
Nc1nccc2c1ncn2[C@@H]1C=C(CO)C(O)[C@@H]1O (stereo partly drawn) [DZnep],"conversion from fibroblast to osteoblast, Alizarin Red S staining and absorbance",[1],do not induce conversion from fibroblast to osteoblast
COc1cc2c(cc1-c1c(C)noc1C)ncc1[nH]c(=O)n([C@H](C)c3ccccn3)c12 [I-BET],"conversion from fibroblast to osteoblast, Alizarin Red S staining and absorbance",[1],do not induce conversion from fibroblast to osteoblast
O=C(NOC[C@H](O)CO)c1ccc(F)c(F)c1Nc1ccc(I)cc1F [PD0325901],"conversion of fibroblast to brown adipocytes, AdipoQ mRNA",[6],converted fibroblast to brown adipocytes expressing mRNA of AdipoQ gene
same,"conversion from fibroblast to osteoblast, Alizarin Red S staining and absorbance",[1],do not induce conversion from fibroblast to osteoblast
Cc1ccc(C(=O)Cn2c3c(sc2=N)CCCC3)cc1 [Pifthrin-α],"conversion from fibroblast to osteoblast, Alizarin Red S staining and absorbance",[1],do not induce conversion from fibroblast to osteoblast
"Fc1ccc(Cl)cc1-c1nc(Nc2ccncc2)c2nccnc2n1 [SD208, 2-(5-Chloro-2-fluorophenyl)-4-[(4-pyridyl)amino]pteridine]","conversion of human fibroblast to osteoblast, Alizarin Red S / ALP staining and absorbance","[10]; calcification induction medium, compounds 1 or 4 μM, TGF-β 10 ng/ml, day 21, FIG. 35, 36",can strongly convert human fibroblast to osteoblast
same,efficiency in converting fibroblast to osteoblast (summary statement),[10],highly efficient in converting fibroblast to osteoblast
"C=C1/C(=C\C=C2/CCC[C@]3(C)[C@@H]([C@H](C)CCCC(C)(C)O)CC[C@@H]23)C[C@@H](O)C[C@@H]1O [VD3, 1α,25-dihydroxy Vitamin D3]","mRNA expression of OC, ALK5 i II and VD3 compared to ALK5 i II",[15]; VD3 5 nM added with ALK5 i II 4 μM,significantly increased
IGF-1: Human insulin-like growth factor-1,"mRNA expression of BSP, ALK5 i II and IGF-1 compared to ALK5 i II",[15]; IGF-1 100 ng/ml added with ALK5 i II 4 μM,further significantly increased
